In patent US10189863B2, “5,6-dihydro-4H-benzo[b]thieno-[2,3-d]azepine derivatives” (PULMOCIDE LIMITED, priority 2014, dated 2019):
Where two headings read alike, the source gives them in different places.

Experiments:
[1] = system: RSV A2 strain; assay: Assessment of RSV induced CPE in HEp2 cells (RSV A2 strain); assay type: cell-based; details: human respiratory syncytial virus; for IC50: HEp-2, 120 h; for inhibition at 0.01 µg/mL: Inhibition (%) at 0.01 μg/mL
How it was run: (§1)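 HEp2 cells were infected at MOI 1 with RSV A2 or RSV B Washington, with compound added at the same time (0.5% DMSO final). Incubation was 5 days for A2 and 6 days for B, then viability was read by resazurin fluorescence (545/590 nm) after 6 h. IC50, IC75 and IC90 came from concentration-response curves.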

[2] = Cell viability: resazurin assay; assay type: cell-based, human; details: human, HEp2 cells
How it was run: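 Viability read-out: resazurin fluorescence (ex 545, em 590 nm) after 6 h, following 5-day compound incubation of HEp2 cells (37 °C, 5% CO2, 5% FBS, 0.5% DMSO final). Loss expressed as percentage of vehicle, negative if viability rose; CC50 derived from concentration-response curve where appropriate.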

[3] = system: RSV B Washington strain; assay: Assessment of RSV induced CPE in HEp2 cells (RSV B Washington strain); assay type: cell-based; details: human respiratory syncytial virus; for IC50: HEp-2, 144 h
How it was run: as §1

[4] = HEp2 cells, 1 MOI, 5 days, read-out: RSV A2 CPE IC50
[5] = HEp-2, HEp2 cells, Inhibition (%) at 0.1 μg/mL, read-out: RSV A2 CPE % Inhibition
[6] = HEp2 cells, 1 MOI, 6 days, read-out: RSV B CPE IC50
[7] = HEp-2, HEp2 cells, Inhibition (%) at 1 μg/mL, read-out: RSV B CPE % Inhibition

SMILES | IC50 [1, 4] | IC50 [3, 6] | inhibition at 0.1 µg/mL [1, 5] | CC50 at 5 days [2] | inhibition at 1 µg/mL [3, 7] | IC50 ([1]; read-out: RSV A2 CPE IC50 (nM)) | inhibition at 0.1 µg/mL ([1]; HEp-2, read-out: RSV A2 CPE % Inhibition) | IC50 ([3]; read-out: RSV B CPE IC50 (nM)) | inhibition at 1 µg/mL ([3]; HEp-2, read-out: RSV B CPE % Inhibition) | inhibition at 0.01 µg/mL ([1]; HEp-2, HEp2 cells) | inhibition at 0.1 µg/mL ([3]; HEp-2, HEp2 cells, Inhibition (%) at 0.1 μg/mL)
Cc1cnc(N2CC3(CCOCC3)C2)c(C(=O)Nc2ccc(C(=O)N3CCc4cc(C(=O)Nc5c(Cl)cccc5Cl)sc4-c4ccccc43)cc2)c1 [Example 57, N-(2,6-dichlorophenyl)-6-(4-(5-methyl-2-(7-oxa-2-aza-spiro[3.5]nonan-2-yl)nicotinamido)benzoyl)-5,6-dihydro-4H-benzo[b]thieno[2,3-d]azepine-2-carboxamide] | 0.13 nM | 1.4 nM | 91% | > 13.3 µM | 74% |  |  |  |  |  | 
Cc1cnc(N2CC3(CCOCC3)C2)c(C(=O)Nc2ccc(C(=O)N3CCc4cc(C(=O)Nc5ccc(F)cc5F)sc4-c4ccccc43)cc2)c1 [Example 38, N-(2,4-difluorophenyl)-6-(4-(5-methyl-2-(7-oxa-2-aza-spiro[3.5]nonan-2-yl)nicotinamido)benzoyl)-5,6-dihydro-4H-benzo[b]thieno[2,3-d]azepine-2-carboxamide] | < 0.014 nM | 18.4 nM | 100% | > 13.9 µM | 73% |  |  |  |  |  | 
COc1ccc(NC(=O)c2cc3c(s2)-c2ccccc2N(C(=O)c2ccc(NC(=O)c4cccnc4N4CC5(CCOCC5)C4)cc2)CC3)c(F)c1 [Example 23, 6-(4-(2-(7-oxa-2-azaspiro[3.5]nonan-2-yl)nicotinamido)benzoyl)-N-(2-fluoro-4-methoxyphenyl)-5,6-dihydro-4H-benzo[b]thieno[2,3-d]azepine-2-carboxamide] | 1.1 nM | 16.3 nM | 100% | > 13.9 µM | 55% |  |  |  |  |  | 
N#Cc1ccccc1NC(=O)c1cc2c(s1)-c1ccccc1N(C(=O)c1ccc(NC(=O)c3cccnc3N3CC4(CCOCC4)C3)cc1)CC2 [Example 2, 6-(4-(2-(7-oxa-2-azaspiro[3.5]nonan-2-yl)nicotinamido)benzoyl)-N-(2-cyanophenyl)-5,6-dihydro-4H-benzo[b]thieno[2,3-d]azepine-2-carboxamide] |  |  |  | > 14.4 µM |  | 0.16 nM | 91% | 314 nM | 69% |  | 
COc1cccc(F)c1NC(=O)c1cc2c(s1)-c1ccccc1N(C(=O)c1ccc(NC(=O)c3cc(C)cnc3N3CC4(CCOCC4)C3)cc1)CC2 [Example 53, N-(2-fluoro-6-methoxyphenyl)-6-(4-(5-methyl-2-(7-oxa-2-azaspiro[3.5]nonan-2-yl)nicotinamido)benzoyl)-5,6-di-hydro-4H-benzo[b]thieno[2,3-d]azepine-2-carboxamide] | 0.23 nM | 14.6 nM | 94% | > 13.7 µM | 96% |  |  |  |  |  | 
Cc1cc(C(=O)Nc2ccc(C(=O)N3CCc4cc(C(=O)Nc5ccc(F)cc5F)sc4-c4ccccc43)cc2)c(N2CC3(CCOCC3)C2)nc1C [Example 45, N-(2,4-difluorophenyl)-6-(4-(5,6-dimethyl-2-(7-oxa-2-azaspiro[3.5]nonan-2-yl)nicotinamido)benzoyl)-5,6-dihydro-4H-benzo[b]thieno[2,3-d]azepine-2-carboxamide] | 0.11 nM | 84 nM | 100% | > 13.6 µM | 68% |  |  |  |  |  | 
O=C(Nc1ccccc1F)c1cc2c(s1)-c1ccccc1N(C(=O)c1ccc(NC(=O)c3cc(C4CC4)cnc3N3CC4(CCOCC4)C3)cc1)CC2 [Example 4, 6-(4-(5-Cyclopropyl-2-(7-oxa-2-azaspiro[3.5]nonan-2-yl)nicotinamido)benzoyl)-N-(2-fluorophenyl)-5,6-dihydro-4H-benzo[b]thieno[2,3-d]azepine-2-carboxamide] | 2.1 nM | 49.3 nM |  | > 13.7 µM | 83% |  |  |  |  | 100% | 
Cc1cccc(C)c1NC(=O)c1cc2c(s1)-c1ccccc1N(C(=O)c1ccc(NC(=O)c3cccnc3N3CC4(CCOCC4)C3)cc1)CC2 [Example 24, 6-(4-(2-(7-oxa-2-azaspiro[3.5]nonan-2-yl)nicotinamido)benzoyl)-N-(2,6-dimethylphenyl)-5,6-dihydro-4H-benzo[b] thieno[2,3-d]azepine-2-carboxamide] | 0.57 nM | 19.6 nM | 88% | > 14.3 µM | 65% |  |  |  |  |  | 
Cc1cnc(N2CC3(CCOCC3)C2)c(C(=O)Nc2ccc(C(=O)N3CCc4cc(C(=O)Nc5c(F)cccc5I)sc4-c4ccccc43)cc2)c1 [Example 6, N-(2-Fluoro-6-iodophenyl)-6-(4-(5-methyl-2-(7-oxa-2-azaspiro[3.5]nonan-2-yl)nicotinamido)benzoyl)-5,6-dihydro-4H-benzo[b]thieno[2,3-d]azepine-2-carboxamide] | 0.13 nM | 4.2 nM |  | > 12.1 µM | 100% |  |  |  |  | 100% | 

Now from value to compound, other results behind:

IC50 [1, 4] | IC50 [3, 6] | SMILES | inhibition at 0.1 µg/mL [1, 5] | CC50 at 5 days [2] | inhibition at 1 µg/mL [3, 7] | IC50 ([1]; read-out: RSV A2 CPE IC50 (nM)) | inhibition at 0.1 µg/mL ([1]; HEp-2, read-out: RSV A2 CPE % Inhibition) | IC50 ([3]; read-out: RSV B CPE IC50 (nM)) | inhibition at 1 µg/mL ([3]; HEp-2, read-out: RSV B CPE % Inhibition) | inhibition at 0.01 µg/mL ([1]; HEp-2, HEp2 cells) | inhibition at 0.1 µg/mL ([3]; HEp-2, HEp2 cells, Inhibition (%) at 0.1 μg/mL)
3.5 nM | 13.5 nM | O=C(Nc1ccc(F)cc1F)c1cc2c(s1)-c1ccccc1N(C(=O)c1ccc(NC(=O)c3cc4ccccc4nc3N3CC4(CCOCC4)C3)cc1)CC2 [Example 85, 6-(4-(2-(7-oxa-2-azaspiro[3.5]nonan-2-yl)quinoline-3-carboxamido)benzoyl)-N-(2,4-difluorophenyl)-5,6-dihydro-4H-benzo[b]thieno[2,3-d]azepine-2-carboxamide] | 95% | > 13.2 µM | 91% |  |  |  |  |  | 
2.4 nM | > 1340 nM | Cc1cnc(N2CCC3(CCOCC3)CC2)c(C(=O)Nc2ccc(C(=O)N3CCc4cc(C(=O)Nc5c(C)cccc5F)sc4-c4ccccc43)cc2)c1 [Example 95, N-(2-fluoro-6-methylphenyl)-6-(4-(5-methyl-2-(3-oxa-9-azaspiro[5.5]undecan-9-yl)nicotinamido)benzoyl)-5,6-di-hydro-4H-benzo[b]thieno[2,3-d]azepine-2-carboxamide] |  | > 13.4 µM | 27% |  |  |  |  | 100% | 
0.25 nM | 1.1 nM | Cc1cnc(N2CC3(CCOCC3)C2)c(C(=O)Nc2ccc(C(=O)N3CCc4cc(C(=O)Nc5c(C)cccc5C)sc4-c4ccccc43)cc2)c1 [Example 64, N-(2,6-dimethylphenyl)-6-(4-(5-methyl-2-(7-oxa-2-aza-spiro[3.5]nonan-2-yl)nicotinamido)benzoyl)-5,6-dihydro-4H-benzo[b]thieno[2,3-d]azepine-2-carboxamide] |  | > 14 µM | 100% |  |  |  |  | 100% | 
1.4 nM | 811 nM | Cc1cnc(N2CCC3(CC2)COC3)c(C(=O)Nc2ccc(C(=O)N3CCc4cc(C(=O)Nc5c(F)cccc5C(F)(F)F)sc4-c4ccccc43)cc2)c1 [Example 94, N-(2-fluoro-6-(trifluoromethyl)phenyl)-6-(4-(5-methyl-2-(2-oxa-7-azaspiro[3.5]nonan-7-yl)nicotinamido)benzoyl)-5,6-dihydro-4H-benzo[b]thieno[2,3-d]azepine-2-carboxamide] |  | > 13 µM | 54% |  |  |  |  | 100% | 
0.087 nM | 17.1 nM | Cc1cccc(F)c1NC(=O)c1cc2c(s1)-c1ccccc1N(C(=O)c1ccc(NC(=O)c3cc(F)cnc3N3CC4(CCOCC4)C3)cc1)CC2 [Example 68, 6-(4-(5-fluoro-2-(7-oxa-2-azaspiro[3.5]nonan-2-yl)nicotinamido)benzoyl)-N-(2-fluoro-6-methylphenyl)-5,6-dihydro-4H-benzo[b]thieno[2,3-d]azepine-2-carboxamide] |  | > 13.9 µM | 100% |  |  |  |  | 90% | 
0.13 nM | 11 nM | O=C(Nc1ccccc1F)c1cc2c(s1)-c1ccccc1N(C(=O)c1ccc(NC(=O)c3cc4ccccc4nc3N3CC4(CCOCC4)C3)cc1)CC2 [Example 84, 6-(4-(2-(7-oxa-2-azaspiro[3.5]nonan-2-yl)quinoline-3-carboxamido)benzoyl)-N-(2-fluorophenyl)-5,6-dihydro-4H-benzo[b]thieno[2,3-d]azepine-2-carboxamide] | 97% | > 13.6 µM | 68% |  |  |  |  |  | 
0.5 nM | 19.4 nM | Cc1cccc(F)c1NC(=O)c1cc2c(s1)-c1ccccc1N(C(=O)c1ccc(NC(=O)c3cc4sccc4nc3N3CC4(CCOCC4)C3)cc1)CC2 [Example 89, 6-(4-(5-(7-oxa-2-azaspiro[3.5]nonan-2-yl)thieno[3,2-b]pyridine-6-carboxamido)benzoyl)-N-(2-fluoro-6-methyl-phenyl)-5,6-dihydro-4H-benzo[b]thieno[2,3-d]azepine-2-carboxamide] |  | > 13.2 µM |  |  |  |  |  | 100% | 100%
